Consider 87 molecules from publication PMC12040169 (PLOS Biology, 2025).

SMILES strings stand for the structures.

A short description of the data set: in vitro. To be noted: human, hela cells, % viability.
In the case of `CCCCNC(=O)N(O)C1N(C)C(=S)SC1(C)C` (stereo not drawn) [CBK006880], the viability at 28.5 h, 10 µM was determined as 91.2%.

For the molecule `Cc1cc(N(C)C)nc(SCc2n[nH]c(=S)o2)n1` [CBK006887], the viability at 28.5 h, 10 µM amounted to 99.8%.

Consider `CC(C)(C)C(=O)CSc1nnc(-c2ccccn2)s1` [CBK006894], for which the viability at 28.5 h, 10 µM is 91.9%. Take `CC1SC(c2cc3ccccc3o2)N(c2ccc(F)cc2F)C1=O` (stereo not drawn) [CBK006917]: the viability at 28.5 h, 10 µM came out at 107%. The value for `CCOC(=O)CSC/C(=N/Nc1ccccc1)c1cccs1` [CBK006956] was 102%; that for `CNC(=O)Nc1cc(C(O)(C(F)(F)F)C(F)(F)F)ccc1C` [CBK006970] was 113%. The value for `CC1(C)CCN(Cc2ccccc2)C1CC#N` (stereo not drawn) [CBK006978C] was 102%; that for `OCCCc1[nH]nc(-c2ccc(Cl)cc2)c1Br` [CBK006993] was 59.2%. For `CCOC(=O)CSc1nc(-c2ccc(C)cc2)cs1` [CBK007039], the viability at 28.5 h, 10 µM is 90.4%. The value for `CCCCCOc1ccc(-c2ccc(Cl)nn2)cc1` [CBK007044] was 83.7%; that for `COC(=O)CSc1nnc(CSc2cc(C)nc(N3CCOCC3)n2)o1` [CBK007059] was 96.1%. Consider `C/C(=N/NC(N)=S)c1ccccc1OCC(=O)O` [CBK007123], for which the viability at 28.5 h, 10 µM turned out to be 97.9%. `O=C1C=C(N2CCC(CCC3CCN(C4=CC(=O)CCC4)CC3)CC2)CCC1` [CBK007126]: the viability at 28.5 h, 10 µM was determined as 105%. The value for `COC(=O)/N=C1/Nc2ccccc2CN1CC(N)=O` [CBK007160] was 91.9%; that for `COc1ccc(-c2cc(NC(=S)NC(=O)/C=C/c3ccccc3)[nH]n2)cc1` [CBK007190] was 97.9%.

For the molecule `O=C(c1c[nH]c2ccccc12)C(F)(F)C(F)(F)F` [CBK007222], the viability at 28.5 h, 10 µM was 101%. The value for `CS(=O)(=O)c1nsc(Cl)n1` [CBK007229] was 87.9%; that for `FC(F)(F)c1ccc2[nH]c(Cn3cncn3)nc2c1` [CBK007335] was 85.3%. The value for `CC1(C)CC(=O)c2cnc3ncnn3c2C1` [CBK007345] was 110%. `CN(C)c1nc(N2CCN(c3ccc(F)cc3)CC2)cc(C(F)(F)F)n1` [CBK007432]: the viability at 28.5 h, 10 µM was 91.1%. The value for `COc1ccc(/C=N/NC(=O)C2CCN(c3ncc(C(F)(F)F)cc3Cl)CC2)cc1` [CBK007433] was 102%; that for `O=C(Cc1ncc(C(F)(F)F)cc1Cl)NO` [CBK007437] was 85%. The value for `COc1ccc(-n2nc(N)c3c(=O)oc(N(C)C)nc32)cc1` [CBK007445] was 89.9%; that for `CN(C)c1nc(N2CCOCC2)c(C#N)c(=O)o1` [CBK007447] was 116%. The value for `O=C1NC2(CCSCC2)Oc2ccccc21` [CBK007488] was 79.3%; that for `Cc1cc(CC(=O)N/N=C/c2ccccc2)[nH]n1` [CBK007500] was 99.8%. On to `Cc1nn2c(c1-c1ccno1)CCCCC2` [CBK007505], for which the viability at 28.5 h, 10 µM was 97.6%. As for `CSc1ncnc2c1CC=N2` [CBK007532], the viability at 28.5 h, 10 µM is 96.4%. As to `O=C(Nc1nc2ccccc2s1)NC1CC1` [CBK007542], the viability at 28.5 h, 10 µM turned out to be 102%. As to `CC(C)C(=O)N(C)c1nnc(-c2cccnc2)s1` [CBK007554], the viability at 28.5 h, 10 µM was found to be 114%.

`COC(=O)c1c(C(C)(C)C)c(O)c2ccoc2c1OC` [CBK007577]: the viability at 28.5 h, 10 µM was 94.2%. The value for `Oc1cccc2c1CC(NCC(F)(F)C(F)(F)F)CC2` (stereo not drawn) [CBK007596] was 96.5%; that for `O=C(N[C@H]1COC(=O)N1)OCc1ccccc1` [CBK007606] was 114%; that for `CCCCCC(=O)N1CCc2cc(N3CC(CNC(C)=O)OC3=O)ccc21` (stereo not drawn) [CBK007646] was 92.5%.

As for `COc1ccc(C2Oc3cccnc3N(CCCN(C)C)C2=O)cc1` (stereo not drawn) [CBK007694], the viability at 28.5 h, 10 µM amounted to 101%. Turning to `Cc1c(C#N)c(=O)oc2ccccc12` [CBK007705], the viability at 28.5 h, 10 µM is 95.2%. The value for `CC(C)(C)OC(=O)N1Cc2c(-c3noc(C4CC4)n3)ncn2-c2ccc(Cl)cc21` [CBK007792] was 90.2%; that for `CCCCCC(=O)N[C@H]1CCC[C@H]1C(=O)O` [CBK007807] was 118%; that for `O=C1c2ccccc2C(=O)N1CCc1nnn[nH]1` [CBK007829] was 111%.

In the case of `C/C(=N\O)c1ccc(S(N)(=O)=O)cc1` [CBK007871], the viability at 28.5 h, 10 µM turned out to be 100%. The value for `NC(=O)CCCN1CC[C@H]2c3c(cccc3C(N)=O)CC[C@H]21` [CBK007883] was 93.3%; that for `CCOc1n[s+]([O-])nc1Nc1cc(Cl)cc(Cl)c1` (stereo not drawn) [CBK007897] was 101%; that for `OC1(c2nnsc2-c2ccccc2)CCCC1` [CBK007956] was 90.2%. The value for `Cc1c(NC(=S)NCCCN2CCOCC2)c(=O)n(-c2ccccc2)n1C` [CBK008032] was 90.7%; that for `O=C(NCc1cccs1)OCc1ccccc1` [CBK008074] was 96.6%.

`CN(C(=O)OC(C)(C)C)C1CN(C(c2ccccc2)c2ccccc2)C1` [CBK008111]: the viability at 28.5 h, 10 µM amounted to 89.8%. The value for `O=C1C=C(O)CC(CCc2ccc(F)cc2)(CCc2ccc(F)cc2)O1` [CBK008148] was 92.7%. Consider `N#CC(N)c1c(Cl)cccc1Cl` (stereo not drawn) [CBK008288C], for which the viability at 28.5 h, 10 µM came out at 103%.

Consider `CCCOc1ccc(Cc2nc(N(C)C)cc(N(C)C)n2)cc1` [CBK008318], for which the viability at 28.5 h, 10 µM stood at 102%.

On to `O=C(c1c[nH]c(-c2ncn[nH]2)c1)c1ccc(Cl)cc1Cl` [CBK008334], for which the viability at 28.5 h, 10 µM is 93.4%. The value for `Sc1nccn1Cc1cccs1` [CBK008454] was 92%; that for `N#CCSC1=CC(=O)CC(c2ccccc2)S1` (stereo not drawn) [CBK008460] was 92.1%; that for `COCc1cc(=O)oc2cc(NS(C)(=O)=O)ccc12` [CBK008516] was 119%.

Turning to `S=C(NCc1cccs1)NC1CC1` [CBK008520], the viability at 28.5 h, 10 µM was found to be 86.4%. As for `CC(C)(C)c1ccc(OCc2nc(N)c3c(N)n[nH]c3n2)cc1` [CBK008565], the viability at 28.5 h, 10 µM turned out to be 90.8%.

With `C=CCOCc1cc(O)n2nc(SC)c(C(N)=O)c2n1` [CBK008592], the viability at 28.5 h, 10 µM came out at 94.6%. The value for `COc1ccc(OC)c(S(=O)(=O)N2CCN(c3ncccn3)CC2)c1` [CBK008662] was 92.7%; that for `CC(C)(C)c1ccc(C(=O)N2CC(C(=O)O)C2)cc1` [CBK008670] was 101%; that for `NC(Cc1ccc(Cl)cc1)C(=O)N(CCc1cc(C(F)(F)F)cc(C(F)(F)F)c1)c1cccc2ccccc12` (stereo not drawn) [CBK008674T] was 92.5%. In the case of `CCN(CC)CCOC(=O)c1oc2c3c(ccc2c1C)OCCO3` [CBK008676C], the viability at 28.5 h, 10 µM came out at 115%. `CCCCc1nnc(CC(C)C)o1` [CBK008679]: the viability at 28.5 h, 10 µM is 106%. The value for `CCCCn1cc(CN(C)C)c2c(C)ccnc21` [CBK008697] was 102%; that for `CCOC(=O)C1=C(N)OC2=C(C(=O)CC(C)(C)C2)C1c1cc(OCC)ccc1OCC` (stereo not drawn) [CBK008699] was 107%; that for `Cc1nnc(O)c2c(C)n(-c3ccc(Br)cc3)nc12` [CBK008726] was 86.2%. For `CC1(C)O[C@@H]2O[C@@H](C(O)CNC(=O)c3ccccc3)[C@@H](O)[C@@H]2O1` (stereo partly drawn) [CBK008736], the viability at 28.5 h, 10 µM worked out at 87%.

Take `Cc1ccc(C2(C(=O)N3CCCC3)CCN(S(=O)(=O)c3ccc(C)cc3)CC2)cc1` [CBK008752]: the viability at 28.5 h, 10 µM turned out to be 102%. The value for `COc1ccc(C2c3ccccc3C[N+]3(C)CCCN23)cc1` (stereo not drawn) [CBK008769] was 95.7%; that for `Cc1cc(C)[n+](-c2nccs2)c(C)c1` [CBK008782G] was 103%.

For `Cc1cc(C)c2c(n1)oc1c(Cl)ncnc12` [CBK008822], the viability at 28.5 h, 10 µM was 93%.

For the molecule `CCOC(=O)NC(Nc1nc2ccccc2s1)(C(F)(F)F)C(F)(F)F` [CBK008913], the viability at 28.5 h, 10 µM amounted to 93.6%. For `CN1C(=S)SC(C)(N(O)C(=O)NC2CCCCC2)C1(C)C` (stereo not drawn) [CBK008916], the viability at 28.5 h, 10 µM was determined as 110%. In the case of `COc1ccc(NC(=O)CSc2nsc(SCC(=O)Nc3ccc(OC)cc3)n2)cc1` [CBK008918], the viability at 28.5 h, 10 µM stood at 92.5%. In the case of `CCC1(C)CC(C(N)=S)CCO1` (stereo not drawn) [CBK008954], the viability at 28.5 h, 10 µM is 97%.

Turning to `CC12CN3CC(C)(CN(C1)C3c1cccc([N+](=O)[O-])c1)C2=O` (stereo not drawn) [CBK009030], the viability at 28.5 h, 10 µM amounted to 88.9%. The value for `O=C(c1ccc2ccccc2c1)C12CN3CN(CN(C3)C1)C2` [CBK009031] was 89.1%.

For the molecule `CCCCOc1ccc(-c2cn(CC(N)=O)cn2)cc1` [CBK009035], the viability at 28.5 h, 10 µM came out at 110%. The value for `Cc1onc(-c2ccccc2)c1-c1n[nH]c(=S)o1` [CBK009044] was 76.7%; that for `CN1CCCCC/C1=N/C(=S)CN1CCCC1=S` [CBK009052] was 96.3%; that for `COC(=O)[C@H]1O[C@H](c2ccccc2)[C@@H]2C(=O)N(C)C(=O)[C@@H]21` [CBK009058] was 87.6%. The value for `CC(C)=NNC(=O)CSc1nc(N2CCOCC2)c2ccccc2n1` [CBK009114] was 85.2%; that for `CC1=NC(O)(C(F)(F)F)C(c2ccccc2)S1` (stereo not drawn) [CBK009121] was 87.8%; that for `COC(=O)CC1CCC(NC(=O)C(F)(F)F)CC1` (stereo not drawn) [CBK009129] was 97.4%.

Turning to `CCN(CC)c1nc(Cl)c(C#N)c2c1CN(C)CC2` [CBK009140], the viability at 28.5 h, 10 µM was 99.2%. The value for `OCCN(CCO)c1ccccc1N(CCO)CCO` [CBK009141] was 85.7%; that for `O=C1NC(CCSC2=NCN=N2)Oc2ccccc21` (stereo not drawn) [CBK009148] was 107%; that for `Cn1sc(=O)c2cc(S(=O)(=O)NC3CC3)ccc21` [CBK009163] was 86%. The value for `COCCCNC(=O)c1cccs1` [CBK009164] was 91.8%.

Broadly, the viability is a read-out of living cells in per cent, often relative to untreated cells.
